Measured values as given in patent EP0562479A1, “1-Phenyl-5-heterocyclic-1H-1, 2,4-triazole-3-carboxamide derivates, process for preparation of the same, and fungicidal composition comprising the same” (KUREHA CHEMICAL INDUSTRY CO., LTD., priority 1992, dated 1993).

Test system: Botrytis cinerea
Experiment: Test for controlling effect against cucumber gray mold
Assay type: in vivo, Botrytis cinerea on cucumber
Conditions: wettable powder sprayed 5 ml per pot, lesion areas three days after inoculation
Experimental: Test Example 1 〈Test for controlling effect against cucumber gray mold (Botrytis cinerea on cucumber)〉 A wettable powder similar to that prepared in Formulation Example 2, diluted with water to a prescribed concentration, was sprayed onto the cucumber plants of the first leaf stage (variety: […], one plant per pot) growing in an unglazed pot (diameter: 10 cm), in an amount of 5 ml per pot. After drying the sprayed leaves in the air, a circular cutting (diameter: 4 mm) of agar containing Botrytis cinerea, which had been cultured in advance in a potato-sucrose agar medium at 20°C for 3 days, was attached directly to the center part of the leaves, and the pots maintained at 20-22°C under high humidity conditions. Three days after the inoculation, lesion areas of the disease were examined to calculate the inhibition rate according to the following equation. [formula]

SMILES	Inhibition rate (%) at concentration of 500 ppm Cucumber gray mold [%]
CCCCOC(c1cccc(-n2nc(C(N)=O)nc2-c2cccc(C)n2)c1)C(C)C (centres unmarked) [Compound 7, 1-[3-[(1-butoxy-2-methyl)propyl]phenyl]-5-(6-methylpyridin-2-yl)-1H-1,2,4-triazole-3-carboxamide]	95
CCCCOC(c1cccc(-n2nc(C(N)=O)nc2-c2sccc2C)c1)C(C)C (centres unmarked) [Compound 16, 1-[3-[(1-butoxy-2-methyl)propyl]phenyl]-5-(3-methylthiophen-2-yl)-1H-1,2,4-triazole-3-carboxamide]	94
